Laboratory results as given in PMC4515243, “Phase 1 pharmacokinetic study of the oral pan-AKT inhibitor MK-2206 in Japanese patients with advanced solid tumors” (Cancer Chemotherapy and Pharmacology, 2015).

Test system: Japanese patients with advanced solid tumors
Experiment: phase 1 safety and tolerability (DLT, adverse events) in Japanese patients;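 note: toxicities graded by NCI CTCAE version 3.0, treatment given until disease progression or unacceptable toxicity, three to nine patients enrolled per dose level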
[1] = 60 mg QOD, grade 3 mucosal inflammation

Text: Treatment was continued until disease progression or the occurrence of an unacceptable toxicity.
A minimum of three and up to nine patients were enrolled at each dose level based on the toxicity probability intervals [9].
Adverse events were graded using the National Cancer Institute Common Terminology Criteria for Adverse Events, version 3.0.

NC1(c2ccc(-c3nc4ccn5c(=O)[nH]nc5c4cc3-c3ccccc3)cc2)CCC1 [MK-2206]
no DLTs: DLTs during Cycle 1 (135 mg QW)
28 days: time until the onset of the DLT after the start of treatment [1]
3: Rash, drug-related adverse event, patients (45 mg QOD (n = 3), All grades) | Hyperglycemia, drug-related adverse event, patients (60 mg QOD (n = 9), All grades)
0: ALT increased, drug-related adverse event, patients (45 mg QOD (n = 3), All grades) | Eosinophil count increased, drug-related adverse event, patients (45 mg QOD (n = 3), All grades) | Erythema multiforme, drug-related adverse event, patients (45 mg QOD (n = 3), All grades) | HbA1C increased, drug-related adverse event, patients (45 mg QOD (n = 3), All grades) | Hypernatremia, drug-related adverse event, patients (45 mg QOD (n = 3), All grades) | Hypoalbuminemia, drug-related adverse event, patients (45 mg QOD (n = 3), All grades) | Hypokalemia, drug-related adverse event, patients (45 mg QOD (n = 3), All grades) | Localized edema, drug-related adverse event, patients (45 mg QOD (n = 3), All grades) | Nausea, drug-related adverse event, patients (45 mg QOD (n = 3), All grades) | Vomiting, drug-related adverse event, patients (45 mg QOD (n = 3), All grades) | ALT increased, drug-related adverse event, patients (45 mg QOD (n = 3), Grades 3–5) | Blood creatinine increased, drug-related adverse event, patients (45 mg QOD (n = 3), Grades 3–5) | Decreased appetite, drug-related adverse event, patients (45 mg QOD (n = 3), Grades 3–5) | Dry skin, drug-related adverse event, patients (45 mg QOD (n = 3), Grades 3–5) | Eosinophil count increased, drug-related adverse event, patients (45 mg QOD (n = 3), Grades 3–5) | Eosinophilia, drug-related adverse event, patients (45 mg QOD (n = 3), Grades 3–5) | Erythema multiforme, drug-related adverse event, patients (45 mg QOD (n = 3), Grades 3–5) | Fatigue, drug-related adverse event, patients (45 mg QOD (n = 3), Grades 3–5) | HbA1C increased, drug-related adverse event, patients (45 mg QOD (n = 3), Grades 3–5) | Hyperglycemia, drug-related adverse event, patients (45 mg QOD (n = 3), Grades 3–5) | Hypernatremia, drug-related adverse event, patients (45 mg QOD (n = 3), Grades 3–5) | Hypoalbuminemia, drug-related adverse event, patients (45 mg QOD (n = 3), Grades 3–5) | Hypokalemia, drug-related adverse event, patients (45 mg QOD (n = 3), Grades 3–5) | Insulin c-peptide increased, drug-related adverse event, patients (45 mg QOD (n = 3), Grades 3–5) | Leukopenia, drug-related adverse event, patients (45 mg QOD (n = 3), Grades 3–5) | Localized edema, drug-related adverse event, patients (45 mg QOD (n = 3), Grades 3–5) | Nausea, drug-related adverse event, patients (45 mg QOD (n = 3), Grades 3–5) | Palmar-plantar erythrodysaesthesia syndrome, drug-related adverse event, patients (45 mg QOD (n = 3), Grades 3–5) | Pruritus, drug-related adverse event, patients (45 mg QOD (n = 3), Grades 3–5) | Pyrexia, drug-related adverse event, patients (45 mg QOD (n = 3), Grades 3–5) | Rash, drug-related adverse event, patients (45 mg QOD (n = 3), Grades 3–5) | Stomatitis, drug-related adverse event, patients (45 mg QOD (n = 3), Grades 3–5) | Vomiting, drug-related adverse event, patients (45 mg QOD (n = 3), Grades 3–5) | Dry skin, drug-related adverse event, patients (60 mg QOD (n = 9), All grades) | Eosinophil count increased, drug-related adverse event, patients (60 mg QOD (n = 9), All grades) | Erythema multiforme, drug-related adverse event, patients (60 mg QOD (n = 9), All grades) | Localized edema, drug-related adverse event, patients (60 mg QOD (n = 9), All grades) | Vomiting, drug-related adverse event, patients (60 mg QOD (n = 9), All grades) | ALT increased, drug-related adverse event, patients (60 mg QOD (n = 9), Grades 3–5) | Blood creatinine increased, drug-related adverse event, patients (60 mg QOD (n = 9), Grades 3–5) | Decreased appetite, drug-related adverse event, patients (60 mg QOD (n = 9), Grades 3–5) | Diarrhea, drug-related adverse event, patients (60 mg QOD (n = 9), Grades 3–5) | Dry skin, drug-related adverse event, patients (60 mg QOD (n = 9), Grades 3–5) | Eosinophil count increased, drug-related adverse event, patients (60 mg QOD (n = 9), Grades 3–5) | Eosinophilia, drug-related adverse event, patients (60 mg QOD (n = 9), Grades 3–5) | Erythema multiforme, drug-related adverse event, patients (60 mg QOD (n = 9), Grades 3–5) | Fatigue, drug-related adverse event, patients (60 mg QOD (n = 9), Grades 3–5) | HbA1C increased, drug-related adverse event, patients (60 mg QOD (n = 9), Grades 3–5) | Hyperglycemia, drug-related adverse event, patients (60 mg QOD (n = 9), Grades 3–5) | Hypernatremia, drug-related adverse event, patients (60 mg QOD (n = 9), Grades 3–5) | Hypoalbuminemia, drug-related adverse event, patients (60 mg QOD (n = 9), Grades 3–5) | Hypokalemia, drug-related adverse event, patients (60 mg QOD (n = 9), Grades 3–5) | Insulin c-peptide increased, drug-related adverse event, patients (60 mg QOD (n = 9), Grades 3–5) | Leukopenia, drug-related adverse event, patients (60 mg QOD (n = 9), Grades 3–5) | Localized edema, drug-related adverse event, patients (60 mg QOD (n = 9), Grades 3–5) | Nausea, drug-related adverse event, patients (60 mg QOD (n = 9), Grades 3–5) | Neutropenia, drug-related adverse event, patients (60 mg QOD (n = 9), Grades 3–5) | Palmar-plantar erythrodysaesthesia syndrome, drug-related adverse event, patients (60 mg QOD (n = 9), Grades 3–5) | Pruritus, drug-related adverse event, patients (60 mg QOD (n = 9), Grades 3–5) | Pyrexia, drug-related adverse event, patients (60 mg QOD (n = 9), Grades 3–5) | Stomatitis, drug-related adverse event, patients (60 mg QOD (n = 9), Grades 3–5) | Vomiting, drug-related adverse event, patients (60 mg QOD (n = 9), Grades 3–5) | ALT increased, drug-related adverse event, patients (135 mg QW (n = 3), All grades) | Blood creatinine increased, drug-related adverse event, patients (135 mg QW (n = 3), All grades) | Erythema multiforme, drug-related adverse event, patients (135 mg QW (n = 3), All grades) | Hypernatremia, drug-related adverse event, patients (135 mg QW (n = 3), All grades) | Hypoalbuminemia, drug-related adverse event, patients (135 mg QW (n = 3), All grades) | Leukopenia, drug-related adverse event, patients (135 mg QW (n = 3), All grades) | Localized edema, drug-related adverse event, patients (135 mg QW (n = 3), All grades) | Lymphopenia, drug-related adverse event, patients (135 mg QW (n = 3), All grades) | Palmar-plantar erythrodysaesthesia syndrome, drug-related adverse event, patients (135 mg QW (n = 3), All grades) | Pruritus, drug-related adverse event, patients (135 mg QW (n = 3), All grades) | Pyrexia, drug-related adverse event, patients (135 mg QW (n = 3), All grades) | Stomatitis, drug-related adverse event, patients (135 mg QW (n = 3), All grades) | ALT increased, drug-related adverse event, patients (135 mg QW (n = 3), Grades 3–5) | Blood creatinine increased, drug-related adverse event, patients (135 mg QW (n = 3), Grades 3–5) | Decreased appetite, drug-related adverse event, patients (135 mg QW (n = 3), Grades 3–5) | Diarrhea, drug-related adverse event, patients (135 mg QW (n = 3), Grades 3–5) | Dry skin, drug-related adverse event, patients (135 mg QW (n = 3), Grades 3–5) | Eosinophil count increased, drug-related adverse event, patients (135 mg QW (n = 3), Grades 3–5)
4: Fatigue, drug-related adverse event, patients (60 mg QOD (n = 9), All grades) | Pruritus, drug-related adverse event, patients (60 mg QOD (n = 9), All grades)
7: Insulin c-peptide increased, drug-related adverse event, patients (60 mg QOD (n = 9), All grades) | Pyrexia, drug-related adverse event, patients (60 mg QOD (n = 9), All grades)
6: Eosinophilia, drug-related adverse event, patients (60 mg QOD (n = 9), All grades) | Stomatitis, drug-related adverse event, patients (60 mg QOD (n = 9), All grades)
One of the nine: patients with DLT during Cycle 1 [1]
2: Dry skin, drug-related adverse event, patients (45 mg QOD (n = 3), All grades) | Eosinophilia, drug-related adverse event, patients (45 mg QOD (n = 3), All grades) | Insulin c-peptide increased, drug-related adverse event, patients (45 mg QOD (n = 3), All grades) | Leukopenia, drug-related adverse event, patients (45 mg QOD (n = 3), All grades) | Lymphopenia, drug-related adverse event, patients (45 mg QOD (n = 3), All grades) | Neutropenia, drug-related adverse event, patients (45 mg QOD (n = 3), All grades) | Stomatitis, drug-related adverse event, patients (45 mg QOD (n = 3), All grades) | Lymphopenia, drug-related adverse event, patients (45 mg QOD (n = 3), Grades 3–5) | HbA1C increased, drug-related adverse event, patients (60 mg QOD (n = 9), All grades) | Hypoalbuminemia, drug-related adverse event, patients (60 mg QOD (n = 9), All grades) | Leukopenia, drug-related adverse event, patients (60 mg QOD (n = 9), All grades) | Neutropenia, drug-related adverse event, patients (60 mg QOD (n = 9), All grades) | Lymphopenia, drug-related adverse event, patients (60 mg QOD (n = 9), Grades 3–5) | Eosinophil count increased, drug-related adverse event, patients (135 mg QW (n = 3), All grades) | Hyperglycemia, drug-related adverse event, patients (135 mg QW (n = 3), All grades) | Insulin c-peptide increased, drug-related adverse event, patients (135 mg QW (n = 3), All grades) | Rash, drug-related adverse event, patients (135 mg QW (n = 3), All grades)
5: Diarrhea, drug-related adverse event, patients (60 mg QOD (n = 9), All grades) | Lymphopenia, drug-related adverse event, patients (60 mg QOD (n = 9), All grades)
1: Blood creatinine increased, drug-related adverse event, patients (45 mg QOD (n = 3), All grades) | Decreased appetite, drug-related adverse event, patients (45 mg QOD (n = 3), All grades) | Diarrhea, drug-related adverse event, patients (45 mg QOD (n = 3), All grades) | Fatigue, drug-related adverse event, patients (45 mg QOD (n = 3), All grades) | Hyperglycemia, drug-related adverse event, patients (45 mg QOD (n = 3), All grades) | Palmar-plantar erythrodysaesthesia syndrome, drug-related adverse event, patients (45 mg QOD (n = 3), All grades) | Pruritus, drug-related adverse event, patients (45 mg QOD (n = 3), All grades) | Pyrexia, drug-related adverse event, patients (45 mg QOD (n = 3), All grades) | Diarrhea, drug-related adverse event, patients (45 mg QOD (n = 3), Grades 3–5) | Neutropenia, drug-related adverse event, patients (45 mg QOD (n = 3), Grades 3–5) | ALT increased, drug-related adverse event, patients (60 mg QOD (n = 9), All grades) | Blood creatinine increased, drug-related adverse event, patients (60 mg QOD (n = 9), All grades) | Decreased appetite, drug-related adverse event, patients (60 mg QOD (n = 9), All grades) | Hypernatremia, drug-related adverse event, patients (60 mg QOD (n = 9), All grades) | Hypokalemia, drug-related adverse event, patients (60 mg QOD (n = 9), All grades) | Nausea, drug-related adverse event, patients (60 mg QOD (n = 9), All grades) | Palmar-plantar erythrodysaesthesia syndrome, drug-related adverse event, patients (60 mg QOD (n = 9), All grades) | Rash, drug-related adverse event, patients (60 mg QOD (n = 9), Grades 3–5) | Decreased appetite, drug-related adverse event, patients (135 mg QW (n = 3), All grades) | Diarrhea, drug-related adverse event, patients (135 mg QW (n = 3), All grades) | Dry skin, drug-related adverse event, patients (135 mg QW (n = 3), All grades) | Eosinophilia, drug-related adverse event, patients (135 mg QW (n = 3), All grades) | Fatigue, drug-related adverse event, patients (135 mg QW (n = 3), All grades) | HbA1C increased, drug-related adverse event, patients (135 mg QW (n = 3), All grades) | Hypokalemia, drug-related adverse event, patients (135 mg QW (n = 3), All grades) | Nausea, drug-related adverse event, patients (135 mg QW (n = 3), All grades) | Neutropenia, drug-related adverse event, patients (135 mg QW (n = 3), All grades) | Vomiting, drug-related adverse event, patients (135 mg QW (n = 3), All grades)
No DLTs: DLTs during Cycle 1 (45 mg QOD, three patients)
9: Rash, drug-related adverse event, patients (60 mg QOD (n = 9), All grades)
